# Measurements taken from ChEMBL document CHEMBL5523733, “Small Molecule Targeting PPM1A Activates Autophagy for Mycobacterium tuberculosis Host-Directed Therapy” (J Med Chem, 2024).
# pIC50, pKi: −log10 of the molar value. Activity calls are given as the source filed them. The rule behind the calls is not given here.
# Tests used:
# [1] = target: T1, Protein phosphatase 1A (Homo sapiens, UniProt P35813); assay: Inhibition of recombinant human PPM1A using pNPP as substrate preincubated for 15 mins followed by substrate addition measured after 20 mins by absorbance based assay
# T1 sequence (P35813 whole entry): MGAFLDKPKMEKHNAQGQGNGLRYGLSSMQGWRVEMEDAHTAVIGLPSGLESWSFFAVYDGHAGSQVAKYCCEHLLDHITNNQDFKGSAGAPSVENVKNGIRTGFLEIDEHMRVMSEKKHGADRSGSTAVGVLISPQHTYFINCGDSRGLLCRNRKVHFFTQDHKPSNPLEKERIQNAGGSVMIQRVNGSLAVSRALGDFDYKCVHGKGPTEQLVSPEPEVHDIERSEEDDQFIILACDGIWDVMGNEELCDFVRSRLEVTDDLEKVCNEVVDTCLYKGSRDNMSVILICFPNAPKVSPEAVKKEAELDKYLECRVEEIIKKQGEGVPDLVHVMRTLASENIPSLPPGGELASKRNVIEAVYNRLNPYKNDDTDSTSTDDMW
# [2] = Cytotoxicity against human Caco-2 cells by resazurin dye based assay; assay type: toxicity, cell-based
# [3] = Cytotoxicity against human THP-1 cells by resazurin dye based assay; assay type: toxicity, cell-based
# [4] = tested on: THP-1; assay: Induction of DNA damage in human THP-1 monocytes assessed as increase in gamma-H2AX at 0.1 to 10 uM incubated for 24 hrs by Western blot analysis; assay type: toxicity, cell-based; details: thp-1, 24 h, dose 0.1-10 µM
# [5] = Toxicity in BALB/c mouse assessed as increase in irritability at 100 mg/kg, ip administered daily for 14 days; assay type: organism-based; details: in vivo, 336 h, time 14 day
# [6] = tested on: Mycobacterium tuberculosis; assay: Inhibition of Mycobacterium tuberculosis mc2 6206 burden in lung of BALB/c mouse infected with at 12.5 to 50 mg/kg, ip administered daily for 8 days; assay type: functional, organism-based; details: dose 12.5-50 mg/kg, time 8.0 day
# [7] = Tmax in ICR mouse at 10 mg/kg, po measured for 24 hrs; assay type: ADME, organism-based; details: in vivo
# [8] = Oral bioavailability in ICR mouse at 10 mg/kg measured for 24 hrs; assay type: ADME, organism-based; details: in vivo
# [9] = Toxicity in BALB/c mouse infected with Mycobacterium tuberculosis mc2 6206 assessed as body weight loss at 12.5 to 50 mg/kg, ip administered daily for 8 days; assay type: organism-based; details: in vivo, 192 h, dose 12.5-50 mg/kg, time 8 day
# [10] = AUC (infinity) in ICR mouse at 2 mg/kg, iv measured for 24 hrs; assay type: ADME, organism-based; details: in vivo
# [11] = Toxicity in BALB/c mouse assessed as change in spleen weight at 12.5 to 100 mg/kg, ip administered daily for 14 days; assay type: organism-based; details: in vivo, 336 h, dose 12.5-100 mg/kg, time 14 day
# [12] = tested on: dsDNA; assay: Binding affinity to dsDNA (unknown origin) assessed as reduction in fluorescence intensity at 5 uM relative to control; assay type: nucleic-acid assay; set-up: scale not given: the % may be the effect or the level left
# [13] = tested on: THP-1; assay: Cytotoxicity against human THP-1 macrophages assessed as cell viability at 0.1 to 10 uM incubated for 24 hrs by flow cytometry; assay type: toxicity, cell-based; details: thp-1, 24 h, dose 0.1-10 µM
# [14] = Toxicity in BALB/c mouse assessed as change in kidney weight at 12.5 to 100 mg/kg, ip administered daily for 14 days; assay type: organism-based; details: in vivo, 336 h, dose 12.5-100 mg/kg, time 14 day
# [15] = Toxicity in BALB/c mouse assessed as change in lung weight at 12.5 to 100 mg/kg, ip administered daily for 14 days; assay type: organism-based; details: in vivo, 336 h, dose 12.5-100 mg/kg, time 14 day
# [16] = tested on: THP-1; assay: Cytotoxicity against human THP-1 monocytes assessed as cell viability at 0.1 to 10 uM incubated for 24 hrs by flow cytometry; assay type: toxicity, cell-based; details: thp-1, 24 h, dose 0.1-10 µM
# [17] = Half life in ICR mouse at 10 mg/kg, po measured for 24 hrs; assay type: ADME, organism-based; details: in vivo
# [18] = Toxicity in BALB/c mouse assessed as body weight change at 12.5 to 100 mg/kg, ip administered daily for 14 days; assay type: organism-based; details: in vivo, 336 h, dose 12.5-100 mg/kg, time 14 day
# [19] = AUClast in ICR mouse at 10 mg/kg, po measured for 24 hrs; assay type: ADME, organism-based; details: in vivo
# [20] = Toxicity in BALB/c mouse infected with Mycobacterium tuberculosis mc2 6206 assessed as visible toxic signs at 12.5 to 50 mg/kg, ip administered daily for 8 days; assay type: organism-based; details: in vivo, 192 h, dose 12.5-50 mg/kg, time 8 day
# [21] = tested on: Mycobacterium tuberculosis; assay: Anti-mycobacterial activity against Mycobacterium tuberculosis mc2 6206 assessed as bacterial growth inhibition at 20 uM incubated for 5 days by resazurin dye based assay; assay type: functional, organism-based; details: time 5.0 day
# [22] = Toxicity in BALB/c mouse assessed as increase in brain weight at higher concentration administered intraperitoneally daily for 14 days; assay type: tissue-based; details: in vivo, ip, 336 h, time 14 day
# [23] = Clearance in ICR mouse at 2 mg/kg, iv measured for 24 hrs; assay type: ADME, organism-based; details: in vivo
# [24] = tested on: THP-1; assay: Induction of autophagy in human THP-1 macrophages assessed as increase in p62 phosphorylation at S403 incubated for 24 hrs in presence of bafilomycin by Western blot analysis; assay type: functional, cell-based; details: dose 0.25-8 µM
# [25] = Toxicity in BALB/c mouse assessed as increase in stress level at 100 mg/kg, ip administered daily for 14 days; assay type: organism-based; details: in vivo, 336 h, time 14 day
# [26] = tested on: THP-1; assay: Induction of autophagy in human THP-1 macrophages assessed as increase in lipidated LC3-II level at 0.25 to 8 uM incubated for 24 hrs in presence of bafilomycin by Western blot analysis; assay type: functional, cell-based; details: dose 0.25-8 µM
# [27] = AUC (infinity) in ICR mouse at 10 mg/kg, po measured for 24 hrs; assay type: ADME, organism-based; details: in vivo
# [28] = Half life in ICR mouse at 2 mg/kg, iv measured for 24 hrs; assay type: ADME, organism-based; details: in vivo
# [29] = Toxicity in BALB/c mouse assessed as visible abnormality at 12.5 to 50 mg/kg, ip administered daily for 14 days; assay type: organism-based; details: in vivo, 336 h, dose 12.5-50 mg/kg, time 14 day
# [30] = tested on: THP-1; assay: Induction of DNA damage in human THP-1 macrophages assessed as increase in gamma-H2AX at 0.1 to 10 uM incubated for 24 hrs by Western blot analysis; assay type: toxicity, cell-based; details: thp-1, 24 h, dose 0.1-10 µM
# [31] = Toxicity in BALB/c mouse assessed as change in liver weight at 12.5 to 100 mg/kg, ip administered daily for 14 days; assay type: organism-based; details: in vivo, 336 h, dose 12.5-100 mg/kg, time 14 day
# [32] = tested on: Mycobacterium tuberculosis; assay: Anti-mycobacterial activity against Mycobacterium tuberculosis mc2 6206 infected in BALB/c mouse assessed as reduction in bacterial burden in spleen administered intraperitoneally daily for 8 days; assay type: functional, organism-based; details: dose 12.5-50 mg/kg, route ip, time 8.0 day
# [33] = Cmax in ICR mouse at 10 mg/kg, po measured for 24 hrs; assay type: ADME, organism-based; details: in vivo
# [34] = AUClast in ICR mouse at 2 mg/kg, iv measured for 24 hrs; assay type: ADME, organism-based; details: in vivo
# [35] = target: T1, Protein phosphatase 1A; assay: Inhibition of PPM1A (unknown origin)
# [36] = tested on: dsDNA; assay: Binding affinity to dsDNA (unknown origin) assessed as reduction in fluorescence intensity at 5 uM; assay type: nucleic-acid assay
# [37] = tested on: THP-1; assay: Cytotoxicity against human THP-1 monocytes assessed as cell viability at 10 uM incubated for 24 hrs by flow cytometry; assay type: toxicity, cell-based; details: thp-1, 24 h
# [38] = tested on: THP-1; assay: Induction of DNA damage in human THP-1 monocytes assessed as increase in gamma-H2AX at 1 uM incubated for 24 hrs by Western blot analysis; assay type: toxicity, cell-based; details: thp-1, 24 h
# [39] = tested on: dsDNA; assay: Binding affinity to dsDNA (unknown origin) of 10 uM assessed as reduction in fluorescence intensity at 5 uM relative to control; assay type: nucleic-acid assay; set-up: scale not given: the % may be the effect or the level left
# [40] = tested on: THP-1; assay: Induction of DNA damage in human THP-1 macrophages assessed as increase in gamma-H2AX at 10 uM incubated for 24 hrs by Western blot analysis; assay type: toxicity, cell-based; details: thp-1, 24 h
# [41] = tested on: dsDNA; assay: Binding affinity to dsDNA (unknown origin) of 5 uM assessed as reduction in fluorescence intensity at 5 uM relative to control; assay type: nucleic-acid assay; set-up: scale not given: the % may be the effect or the level left
structure (smiles),measurement,setting,value
COc1cc2c[n+](CCO)c3ccc(F)cc3c2cc1C1CC1,pIC50,[1],< 4.70
CC(C)Oc1ccc2c(c1)c[n+](CCO)c1ccc(F)cc21,pIC50,[1],5.43
COc1ccc2c(c1)c[n+](C(CO)CO)c1ccc(F)cc21,pIC50,[1],< 4.70
COc1cc2c[n+](CCO)c3ccc(F)cc3c2cc1I,pIC50,[1],< 4.70
OCC[n+]1cc2ccccc2c2cc(F)ccc21,pIC50,[1],< 4.70
COc1ccc2c(c1)c[n+](CCO)c1ccc(Br)cc21,pIC50,[1],5.35
same,CC50,[2],185 µM
same,CC50,[3],68 µM
CCOc1ccc2c(c1)c[n+](CCO)c1ccc(F)cc21.[Br-],Activity,[4],Non-Toxic
same,Activity,[5],Toxic
same,inhibition,[6],inactive
same,Tmax,[7],15 min
same,bioavailability,[8],73.7%
same,Activity,[9],Non-Toxic
same,AUC(0-inf),[10],208 ng·h/mL
same,Activity,[11],Non-Toxic
same,pIC50,[1],6.74
same,pKi,[1],6.23
same,Activity,[12],10%
same,Activity,[13],Non-Toxic
same,Activity,[14],Non-Toxic
same,CC50,[2],> 200 µM
same,Activity,[15],Non-Toxic
same,Activity,[16],Non-Toxic
same,CC50,[3],138 µM
same,half-life,[17],46.3 min
same,Activity,[18],Non-Toxic
same,AUC(0-t) at 24 h,[19],759 ng·h/mL
same,Activity,[20],Non-Toxic
same,inhibition,[21],inactive
same,Activity,[22],Toxic
same,clearance,[23],170 mL/min/kg
same,Activity,[24],Dose-Dependent Effect
same,Activity,[25],Toxic
same,Activity,[26],Active
same,AUC(0-inf),[27],761 ng·h/mL
same,half-life,[28],38 min
same,Activity,[29],Non-Toxic
same,Activity,[30],Non-Toxic
same,Activity,[31],Non-Toxic
same,Activity,[32],Dose-Dependent Effect
same,Cmax,[33],908 ng/mL
same,AUC(0-t) at 24 h,[34],206 ng·h/mL
CCOc1ccc2c(c1)c1ccc(OC)cc1c[n+]2CCO,pIC50,[1],< 4.70
COc1cc2c[n+](CCO)c3ccc(F)cc3c2cc1C#Cc1ccccc1,pIC50,[1],< 5.00
COc1ccc2c(c1)c[n+](CCCO)c1ccc(F)cc21,pIC50,[1],< 5.00
COc1ccc2c(c1)c[n+](CCCCO)c1ccc(F)cc21,pIC50,[1],< 4.70
COc1ccc2c(c1)c[n+](NCCO)c1ccc(F)cc21,pIC50,[1],< 5.00
COc1ccc2c(c1)c[n+](CCO)c1ccc(F)cc21.[Br-],Activity,[4],Non-Toxic
same,pIC50,[1],5.92
same,Activity,[13],Non-Toxic
same,CC50,[2],> 200 µM
same,Activity,[16],Non-Toxic
same,CC50,[3],94.8 µM
same,pIC50,[35],5.92
same,pKi,[35],6.08
same,Activity,[30],Non-Toxic
same,Activity,[36],inactive
OCC[n+]1cc2cc(OC(F)(F)F)ccc2c2cc(F)ccc21,pIC50,[1],5.84
same,CC50,[2],> 200 µM
same,CC50,[3],> 200 µM
COc1ccc2c(c1)c[n+](CC(C)O)c1ccc(F)cc21 (stereo unspecified),pIC50,[1],< 4.70
COc1cc2c[n+](CCO)c3ccc(F)cc3c2cc1-c1ccc2c(c1)OCO2,pIC50,[1],< 4.70
C[n+]1cc2c3c(ccc2c2ccc4cc5c(cc4c21)OCO5)OCO3 [SANGUINARIUM],Activity,[37],Toxic
same,Activity,[38],Toxic
same,Activity,[39],93%
same,Activity,[40],Toxic
same,Activity,[41],84%
COc1ccc2c(c1)c[n+](CCO)c1ccc(C)cc21,pIC50,[1],< 4.70
OCC[n+]1cc2cc3c(cc2c2cc(F)ccc21)OCO3,pIC50,[1],< 4.70
OCC[n+]1cc2cc(F)ccc2c2cc(F)ccc21,pIC50,[1],< 4.70
